Test results taken from patent US9522141B2, “Indazole compounds as aldosterone synthase inhibitors” (Merck Sharp & Dohme Corp., priority 2012, dated 2016).

Legend:
human CYP11B1 = biological target: T1, human CYP11B1 (Homo sapiens, UniProt P15538); assay: V79-Human-CYP11B1 cell assay; assay type: cell-based; settings: V79 cells stably expressing human CYP11B1; 250 nM 11-deoxycortisol substrate; cortisol by HTRF
T1 construct: expressed in transfected cells; host or cells: V79 cells (clone V79-hCYP11B1-8CLC7)
T1 sequence (P15538 25-503): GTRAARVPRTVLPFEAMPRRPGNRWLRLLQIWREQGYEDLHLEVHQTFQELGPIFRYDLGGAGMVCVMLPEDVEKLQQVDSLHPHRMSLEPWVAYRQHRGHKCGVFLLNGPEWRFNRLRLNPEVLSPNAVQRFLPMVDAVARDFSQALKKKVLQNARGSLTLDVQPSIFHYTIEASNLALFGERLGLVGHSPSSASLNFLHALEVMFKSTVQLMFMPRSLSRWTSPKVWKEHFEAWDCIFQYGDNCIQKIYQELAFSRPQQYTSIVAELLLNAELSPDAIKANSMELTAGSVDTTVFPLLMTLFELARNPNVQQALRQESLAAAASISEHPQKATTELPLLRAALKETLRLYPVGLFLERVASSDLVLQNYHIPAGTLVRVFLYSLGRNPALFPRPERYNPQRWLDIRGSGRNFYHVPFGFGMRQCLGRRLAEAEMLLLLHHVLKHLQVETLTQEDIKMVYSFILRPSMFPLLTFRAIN
Protocol: (§1) Methods for V79-Human-CYP11B2 and V79-Human-CYP11B1 Assays: V79 cell lines stably expressing the either the human CYP11B2 or the human CYP11B1 enzyme were generated using a standard transfection protocol. V79 cells were transfected with plasmids pTriEx3-Hygro-hCyp11B2 or pTriEx3-Hygro-hCyp11B1 using Lipofectamine2000 reagent. […] Single cell clones were generated by […] in DMEM supplemented with 10% FBS and 400 μg/mL hygromycin until single colonies were obtained. […] The reaction was carried out for 3 hours at 37° C., 5% CO2 and was stopped by harvesting the supernatants. […] IC50s for the inhibitor were determined by plotting the amount of product formed against the concentration of inhibitor using sigmoidal dose-response curve (variable slope) fit in GraphPad.

human CYP11B2 = biological target: T2, human CYP11B2 (Homo sapiens, UniProt P19099); assay: V79-Human-CYP11B2 cell assay; assay type: cell-based; settings: V79 cells stably expressing human CYP11B2; 125 nM 11-deoxycorticosterone substrate; aldosterone by HTRF
T2 construct: expressed in transfected cells; host or cells: V79 cells (clone V79-hCYP11B2-CLE9)
T2 sequence (P19099 25-503): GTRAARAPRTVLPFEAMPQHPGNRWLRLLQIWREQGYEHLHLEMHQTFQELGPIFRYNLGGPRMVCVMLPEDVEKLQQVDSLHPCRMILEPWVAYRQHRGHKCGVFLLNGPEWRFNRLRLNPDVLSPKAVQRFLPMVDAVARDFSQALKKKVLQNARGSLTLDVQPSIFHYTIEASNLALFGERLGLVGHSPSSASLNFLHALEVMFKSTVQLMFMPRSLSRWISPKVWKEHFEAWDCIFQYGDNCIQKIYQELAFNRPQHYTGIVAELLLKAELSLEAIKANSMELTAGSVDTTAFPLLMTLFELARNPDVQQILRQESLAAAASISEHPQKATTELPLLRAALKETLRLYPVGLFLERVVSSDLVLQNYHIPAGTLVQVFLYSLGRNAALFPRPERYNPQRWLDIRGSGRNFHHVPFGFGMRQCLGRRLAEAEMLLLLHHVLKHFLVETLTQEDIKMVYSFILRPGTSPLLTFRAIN
Protocol: as §1

Row | SMILES | IC50 (human CYP11B1) | IC50 (human CYP11B2)
1 | Fc1ccc2c(cnn2-c2cncc(C(F)(F)F)c2)c1 [Example 6, 5-fluoro-1-(5-(trifluoromethyl)pyridin-3-yl)-1H-indazole] | 1910 nM | 83 nM
2 | Cc1nn(-c2cncc(C(F)(F)F)c2)c2cccc(F)c12 [Example 36, 4-fluoro-3-methyl-1-(5-(trifluoromethyl)pyridin-3-yl)-1H-indazole] | 257 nM | 17 nM
3 | CCc1c(F)cncc1-n1ncc2c(F)cccc21 [Example 42, 1-(4-ethyl-5-fluoropyridin-3-yl)-4-fluoro-1H-indazole] | 1800 nM | 131 nM
4 | Fc1cc2cnn(-c3cncc4ccccc34)c2cc1F [Example 46, 4-(5,6-difluoro-1H-indazol-1-yl)isoquinoline] | 107 nM | 1.9 nM
5 | CC(C)(O)c1cncc(-n2ncc3cc(F)c(F)cc32)c1 [Example 54, 2-(5-(5,6-difluoro-1H-indazol-1-yl)pyridin-3-yl)propan-2-ol] | 305 nM | 23 nM
6 | CC(C)(O)c1cncc(-n2ncc3cccc(F)c32)c1 [Example 68, 2-(5-(7-fluoro-1H-indazol-1-yl)pyridin-3-yl)propan-2-ol] | 36.4 nM | 1.2 nM
7 | CC(O)(c1cncc(-n2ncc3c2CCCC3)c1)C(F)(F)F (centres unmarked) [Example 75] | 498 nM | 7.7 nM
8 | C[C@](O)(c1cncc(-n2ncc3c(C(F)(F)F)cccc32)c1)C(F)(F)F [Example 85, (S)-1,1,1-trifluoro-2-(5-(4-(trifluoromethyl)-1H-indazol-1-yl)pyridin-3-yl)propan-2-ol] | 98 nM | 2.2 nM
9 | CN(C)c1cncc(-n2ncc3c(Cl)cccc32)n1 [Example 88, 6-(4-chloro-1H-indazol-1-yl)-N,N-dimethylpyrazin-2-amine] | 633 nM | 17.5 nM
10 | Clc1cccc2c1cnn2-c1cncc(N2CCC2)n1 [Example 90, 1-(6-azetidin-1-ylpyrazin-2-yl)-4-chloro-1H-indazole] | 31.5 nM | 1.6 nM
